*1 amine or outer side, *2 acyl side, *3 side chain or, on linkers, in order; H or OH if unused. Where a SMILES comes first, the peptide text is derived from it. Bridges are numbered along the chain shown (N, C = ends). [ ]: non-standard residue; d: D form. The star is where a group is joined. hPhe(3-Cl-4-CF3) = N[C@@H](CCc1ccc(C(F)(F)F)c(Cl)c1)C(=O)O; NPrPhe(4-CF3) = CCCN[C@@H](Cc1ccc(C(F)(F)F)cc1)C(=O)O; X44 = CCCN([C@@H](Cc1ccccc1)C(=O)[*:2])[*:1]; NMeGly(cPent) = CN[C@H](C(=O)O)C1CCCC1; Pro(4,4-F2) = O=C(O)[C@@H]1CC(F)(F)CN1; NMeD = CN[C@@H](CC(=O)O)C(=O)O; NMeL = CN[C@@H](CC(C)C)C(=O)O; Morpholide = C1CN(*)CCO1; Ac5c = NC1(C(=O)O)CCCC1; Aze = O=C(O)[C@@H]1CCN1; Sar = CNCC(=O)O
What was measured:
[1] = target: GDP-bound NRAS wild-type protein (Homo sapiens, UniProt P01111); assay: Binding to NRAS by surface plasmon resonance (SPR), Single Cycle Kinetics
[2] = target: GDP-bound HRAS wild-type protein (Homo sapiens, UniProt P01112); assay: Binding to HRAS by surface plasmon resonance (SPR), Single Cycle Kinetics
[3] = KD ratio NRAS/KRAS, class symbols
[4] = KD ratio HRAS/KRAS, class symbols

Sequence of GDP-bound HRAS wild-type protein (P01112 whole entry): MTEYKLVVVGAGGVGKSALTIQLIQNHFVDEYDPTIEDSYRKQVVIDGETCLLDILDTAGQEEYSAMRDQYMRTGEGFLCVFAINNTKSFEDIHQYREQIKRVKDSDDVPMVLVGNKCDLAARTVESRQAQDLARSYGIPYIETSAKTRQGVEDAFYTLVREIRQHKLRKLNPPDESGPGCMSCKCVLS
Sequence of GDP-bound NRAS wild-type protein (P01111 whole entry): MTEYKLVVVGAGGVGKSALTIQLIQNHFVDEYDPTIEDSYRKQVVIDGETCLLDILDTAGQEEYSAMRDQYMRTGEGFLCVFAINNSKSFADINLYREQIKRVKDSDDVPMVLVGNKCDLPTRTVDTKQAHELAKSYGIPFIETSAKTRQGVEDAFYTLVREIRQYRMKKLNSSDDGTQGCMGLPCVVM

SMILES: CCCN1C(=O)[C@@H]2CCN2C(=O)CN(C)C(=O)[C@H]([C@@H](C)CC)NC(=O)[C@H](CC(C)C)N(C)C(=O)C[C@@H](C(=O)N(C)C)N(C)C(=O)[C@H](C2CCCC2)N(C)C(=O)C2(CCCC2)NC(=O)[C@@H]2CC(F)(F)CN2C(=O)[C@H](CCc2ccc(C(F)(F)F)c(Cl)c2)NC(=O)CN(C)C(=O)[C@@H]1Cc1ccc(C(F)(F)F)cc1 [PP0442] ([NMeL]I[Sar][Aze][NPrPhe(4-CF3)][Sar][hPhe(3-Cl-4-CF3)][Pro(4,4-F2)][Ac5c][NMeGly(cPent)][NMeD]-NMe2; lactam N-11)
- NRAS/KRAS (ratio of KD value with respect to GDP-bound NRAS wild-type protein to KD value with respect to KRAS) ([1]; KD ratio NRAS/KRAS, SPR): C (A compound having a KD ratio of 0.1 or more and less than 3 is denoted as C)
- HRAS/KRAS (ratio of KD value with respect to GDP-bound HRAS wild-type protein to KD value with respect to KRAS) ([2]; KD ratio HRAS/KRAS, SPR): C (A compound having a KD ratio of 0.1 or more and less than 3 is denoted as C)

SMILES: CCCN1C(=O)CN(C)C(=O)CN(C)C(=O)[C@H]([C@@H](C)CC)NC(=O)[C@H](CC(C)C)N(C)C(=O)C[C@@H](C(=O)N2CCOCC2)N(C)C(=O)[C@H](C2CCCC2)N(C)C(=O)C2(CCCC2)NC(=O)[C@@H]2CCCN2C(=O)[C@H](CCc2ccc(C(F)(F)F)c(Cl)c2)NC(=O)CN(C)C(=O)[C@@H]1Cc1ccccc1 [PP0211] ([NMeL]I[Sar][Sar][X44][Sar][hPhe(3-Cl-4-CF3)]P[Ac5c][NMeGly(cPent)][NMeD]-Morpholide; lactam N-11)
- NRAS/KRAS (ratio of KD for GDP-bound NRAS wild-type to KD for KRAS) ([1]; KD ratio NRAS/KRAS, SPR): B (a compound having 3 or more and less than 10 is denoted as B)
- HRAS/KRAS (ratio of KD for GDP-bound HRAS wild-type to KD for KRAS) ([2]; KD ratio HRAS/KRAS, SPR): C (A compound having a KD ratio of 0.1 or more and less than 3 is denoted as C)

SMILES: CCC[C@H]1C(=O)N[C@@H](CC(C)C)C(=O)N2C[C@@H](OC)C[C@H]2C(=O)N(C)[C@H]2C/C=C\CCN(C2=O)[C@@H](Cc2ccc(C)cc2)C(=O)N(C)CC(=O)N[C@@H](CCc2ccc(C(F)(F)F)c(Cl)c2)C(=O)N2C[C@H](OCC)C[C@H]2C(=O)NC2(CCC2)C(=O)N(C)[C@@H](C2CCCC2)C(=O)N(C)[C@H](C(=O)N(C)C)CC(=O)N1C [PP2549]
- NRAS/KRAS (ratio of KD value with respect to GDP-bound NRAS wild-type protein to KD value with respect to KRAS) [1, 3]: A (a compound having 10 or more and less than 20 is denoted as A)
- HRAS/KRAS (ratio of KD value with respect to GDP-bound HRAS wild-type protein to KD value with respect to KRAS) [2, 4]: B (a compound having 3 or more and less than 10 is denoted as B)

SMILES: C#CC[C@H]1C(=O)N[C@@H]([C@@H](C)CC)C(=O)N(C)CC(=O)N(C)[C@H]2C/C=C\CCN(C2=O)[C@@H](Cc2ccc(C(F)(F)F)cc2)C(=O)N(C)CC(=O)N[C@@H](CCc2ccc(Cl)c(Cl)c2)C(=O)N2C[C@H](OCC)C[C@H]2C(=O)NC2(CC(C)(C)C2)C(=O)N(C)[C@@H](C2CCCC2)C(=O)N(C)[C@H](C(=O)N(C)CC)CC(=O)N1C [PP2843]
- NRAS/KRAS (ratio of KD value with respect to GDP-bound NRAS wild-type protein to KD value with respect to KRAS) [1, 3]: A (a compound having 10 or more and less than 20 is denoted as A)
- HRAS/KRAS (ratio of KD value with respect to GDP-bound HRAS wild-type protein to KD value with respect to KRAS) [2, 4]: A (a compound having 10 or more and less than 20 is denoted as A)

SMILES: CC[C@H](C)[C@@H]1NC(=O)[C@H](CC(C)C)N(C)C(=O)C[C@@H](C(=O)N2CCOCC2)N(C)C(=O)[C@H](C2CCCC2)N(C)C(=O)C2(CC(F)(F)C2)NC(=O)[C@@H]2CCCN2C(=O)[C@H](CCc2cc(F)c(C(F)(F)F)c(F)c2)NC(=O)CN(C)C(=O)[C@H](Cc2ccc(C(F)(F)F)cc2)N2CCCCC[C@@H](C2=O)N(C)C(=O)CN(C)C1=O [PP0499]
- NRAS/KRAS (ratio of KD value with respect to GDP-bound NRAS wild-type protein to KD value with respect to KRAS) ([1]; KD ratio NRAS/KRAS, SPR): B (a compound having 3 or more and less than 10 is denoted as B)
- HRAS/KRAS (ratio of KD value with respect to GDP-bound HRAS wild-type protein to KD value with respect to KRAS) ([2]; KD ratio HRAS/KRAS, SPR): B (a compound having 3 or more and less than 10 is denoted as B)

SMILES: CCO[C@@H]1C[C@H]2C(=O)NC3(CCC3)C(=O)N(C)[C@@H](C3CCCC3)C(=O)N(C)[C@H](C(=O)N(C)C)CC(=O)N(C)[C@@H](Cc3ccccc3C)C(=O)N[C@@H]([C@@H](C)CC)C(=O)N(C)CC(=O)N(C)[C@H]3CCCCCN(C3=O)[C@@H](Cc3ccc(C(F)(F)F)cc3)C(=O)N(C)CC(=O)N[C@@H](CCc3cc(F)c(C(F)(F)F)c(F)c3)C(=O)N2C1 [PP0941]
- NRAS/KRAS (ratio of KD value with respect to NRAS to KD value with respect to KRAS) ([1]; KD ratio, GDP-bound NRAS wild-type vs GDP-bound KRAS wild-type, SPR): B (a compound having 3 or more and less than 10 is denoted as B)
- HRAS/KRAS (ratio of KD value with respect to HRAS to KD value with respect to KRAS) ([2]; KD ratio, GDP-bound HRAS wild-type vs GDP-bound KRAS wild-type, SPR): B (a compound having 3 or more and less than 10 is denoted as B)

SMILES: CC[C@H](C)[C@@H]1NC(=O)[C@H](CC(C)C)N(C)C(=O)C[C@@H](C(=O)N2CCOCC2)N(C)C(=O)[C@H](C2CCCC2)N(C)C(=O)C2(CCCC2)NC(=O)[C@@H]2CCCN2C(=O)[C@H](CCc2ccc(C(F)(F)F)c(Cl)c2)NC(=O)CN(C)C(=O)[C@H](Cc2ccc(OC(F)(F)F)cc2)N2C/C=C\CC[C@@H](C2=O)N(C)C(=O)CN(C)C1=O [PP0610]
- NRAS/KRAS (ratio of KD value with respect to GDP-bound NRAS wild-type protein to KD value with respect to KRAS) ([1]; KD ratio NRAS/KRAS, SPR): B (a compound having 3 or more and less than 10 is denoted as B)
- HRAS/KRAS (ratio of KD value with respect to GDP-bound HRAS wild-type protein to KD value with respect to KRAS) ([2]; KD ratio HRAS/KRAS, SPR): B (a compound having 3 or more and less than 10 is denoted as B)

From patent US20250230193A1, “CYCLIC COMPOUND HAVING SELECTIVE KRAS INHIBITORY EFFECT ON HRAS AND NRAS” (CHUGAI SEIYAKU KABUSHIKI KAISHA, priority 2022, published 2025)
